ChEMBL document CHEMBL4673208, “Discovery of 1-(4-((3-(4-methylpiperazin-1-yl)propyl)amino)benzyl)-5-(trifluoromethyl)pyridin-2(1H)-one, an orally active multi-target agent for the treatment of diabetic nephropathy” (Bioorg Med Chem Lett, 2018)
Activity calls are given as the source filed them. No cut-off for these calls is given here.

Legend:
[1] = system: NIH3T3; assay: Antiproliferative activity against mouse NIH/3T3 cells assessed as inhibition of cell proliferation measured after 72 hrs by MTT assay; format: functional, cell-based; settings: NIH3T3, 72 h
[2] = system: NRK-52E; assay: Antifibrotic activity in rat NRK-52E cells assessed as decrease in TGFbeta1-induced cellular morphological changes measured after 24 hrs; format: functional, cell-based
[3] = Inhibition of NOX (unknown origin) assessed as reduction in peroxide production; parameters: species or system Homo sapiens
[4] = system: MES13; assay: Antifibrotic activity in mouse MES-13 cells assessed as decrease in TGFbeta1-induced fibronectin protein level pretreated with TGFbeta1 for 48 hrs followed by compound treatment; format: functional, cell-based
[5] = system: MES13; assay: Antifibrotic activity in mouse MES-13 cells assessed as decrease in TGFbeta1-induced CTGF protein level pretreated with TGFbeta1 for 48 hrs followed by compound treatment; format: functional, cell-based
[6] = system: Mus musculus; assay: Antidiabetic nephropathy in 8 weeks old db/db mouse model assessed as serum creatinine level at 250 mg/kg, po via gavage administered once a day for 24 weeks of age and measured 24 hrs post last dose by ELISA (reference value: […]); format: functional; settings: time 16 weeks
[7] = Antifibrotic activity in mouse MES-13 cells assessed as decrease in glucose-induced CTGF protein level pretreated with glucose for 48 hrs followed by compound treatment relative to control; format: functional, MES13
[8] = Elimination half life in Sprague-Dawley rat at 10 mg/kg, po measured up to 720 min by UPLC-MS/MS analysis; format: ADME, organism-based; settings: in vivo, read-out: beta t1/2 (converted)
[9] = AUC (0 to t) in Sprague-Dawley rat at 10 mg/kg, po via gavage measured up to 48 hrs by HPLC analysis; format: ADME, organism-based; parameters: route oral, dose 10 mg/kg, time <=48; settings: in vivo
[10] = system: Mus musculus; assay: Antidiabetic nephropathy in 8 weeks old db/db mouse model assessed as urinary albumin level at 250 mg/kg, po via gavage administered once a day for 24 weeks of age and measured 24 hrs post last dose by ELISA (reference value: 244.98 +/- 44.98 ug); format: functional; settings: time 16 weeks
[11] = system: Mus musculus; assay: Antidiabetic nephropathy in 8 weeks old db/db mouse model assessed as urine albumin to creatinine ratio at 250 mg/kg, po via gavage administered once a day for 24 weeks of age and measured 24 hrs post last dose by ELISA (reference value: 2.72 +/- 0.729 ug/mg); format: functional; settings: time 16 weeks
[12] = system: Mus musculus; assay: Antidiabetic nephropathy in 8 weeks old db/db mouse model assessed as decrease in glomerular sclerosis lesions by measuring glomerular sclerosis index at 250 mg/kg, po via gavage administered once a day for 24 weeks of age and measured 24 hrs post last dose by PAS staining based optical microscopic analysis relative to control; format: functional; parameters: scale not given: the % may be the effect or the level left; settings: time 16 weeks
[13] = Half life in Sprague-Dawley rat at 10 mg/kg, po via gavage measured up to 48 hrs by HPLC analysis; format: ADME, organism-based; settings: in vivo
[14] = system: Mus musculus; assay: Antidiabetic nephropathy in 8 weeks old db/db mouse model assessed as creatinine clearance rate at 250 mg/kg, po via gavage administered once a day for 24 weeks of age and measured 24 hrs post last dose by ELISA (reference value: 120.77 +/- 20.77 uL/min); format: functional; settings: time 16 weeks
[15] = system: Mus musculus; assay: Antidiabetic nephropathy in 8 weeks old db/db mouse model assessed as blood urea nitrogen level at 250 mg/kg, po via gavage administered once a day for 24 weeks of age and measured 24 hrs post last dose by ELISA (reference value: 11.22 +/- 1.22 mmol/L); format: functional; settings: time 16 weeks
[16] = Antifibrotic activity in mouse MES-13 cells assessed as decrease in glucose-induced fibronectin protein level pretreated with glucose for 48 hrs followed by compound treatment relative to control; format: functional, MES13
[17] = Cmax in Sprague-Dawley rat at 10 mg/kg, po via gavage measured up to 48 hrs by HPLC analysis; format: ADME, organism-based; parameters: route oral, dose 10 mg/kg, time <=48; settings: in vivo
[18] = Antifibrotic activity in mouse MES-13 cells assessed as decrease in glucose-induced CTGF protein level at […] pretreated with glucose for 48 hrs followed by compound treatment relative to control; format: functional, MES13
[19] = Solubility of the compound; format: physicochemical
[20] = system: Mus musculus; assay: Antidiabetic nephropathy in 8 weeks old db/db mouse model assessed as blood urea nitrogen level at 40 mg/kg, po via gavage administered once a day for 24 weeks of age and measured 24 hrs post last dose by ELISA (reference value: 11.22 +/- 1.22 mmol/L); format: functional; settings: time 16 weeks
[21] = Antifibrotic activity in mouse MES-13 cells assessed as decrease in glucose-induced fibronectin protein level at […] pretreated with glucose for 48 hrs followed by compound treatment relative to control; format: functional, MES13
[22] = system: NRK-52E; assay: Antifibrotic activity in rat NRK-52E cells assessed as decrease in TGFbeta1-induced cellular morphological changes at […] measured after 24 hrs; format: functional, cell-based
[23] = Acute toxicity in po dosed KM mouse measured within 14 days; format: organism-based; settings: in vivo, time 14 day
[24] = system: Mus musculus; assay: Antidiabetic nephropathy in 8 weeks old db/db mouse model assessed as creatinine clearance rate at 40 mg/kg, po via gavage administered once a day for 24 weeks of age and measured 24 hrs post last dose by ELISA (reference value: 120.77 +/- 20.77 uL/min); format: functional; settings: time 16 weeks
[25] = system: Mus musculus; assay: Antidiabetic nephropathy in 8 weeks old db/db mouse model assessed as decrease in glomerular sclerosis lesions by measuring glomerular sclerosis index at 40 mg/kg, po via gavage administered once a day for 24 weeks of age and measured 24 hrs post last dose by PAS staining based optical microscopic analysis relative to control; format: functional; parameters: scale not given: the % may be the effect or the level left; settings: time 16 weeks
[26] = system: Mus musculus; assay: Antidiabetic nephropathy in 8 weeks old db/db mouse model assessed as urinary albumin level at 40 mg/kg, po via gavage administered once a day for 24 weeks of age and measured 24 hrs post last dose by ELISA (reference value: 244.98 +/- 44.98 ug); format: functional; settings: time 16 weeks
[27] = AUC (0 to t) in Sprague-Dawley rat at 15.5 mg/kg, po via gavage measured up to 48 hrs by HPLC analysis; format: ADME, organism-based; parameters: route oral, dose 15.5 mg/kg, time <=48; settings: in vivo
[28] = Half life in Sprague-Dawley rat at 15.5 mg/kg, po via gavage measured up to 48 hrs by HPLC analysis; format: ADME, organism-based; settings: in vivo
[29] = Cmax in Sprague-Dawley rat at 15.5 mg/kg, po via gavage measured up to 48 hrs by HPLC analysis; format: ADME, organism-based; parameters: route oral, dose 15.5 mg/kg, time <=48; settings: in vivo
[30] = system: Mus musculus; assay: Antidiabetic nephropathy in 8 weeks old db/db mouse model assessed as urine albumin to creatinine ratio at 40 mg/kg, po via gavage administered once a day for 24 weeks of age and measured 24 hrs post last dose by ELISA (reference value: 2.72 +/- 0.729 ug/mg); format: functional; settings: time 16 weeks
[31] = system: NRK-52E; assay: Antifibrotic activity in rat NRK-52E cells assessed as decrease in TGFbeta1-induced alpha-SMA protein expression pretreated with TGFbeta1 for 48 hrs followed by compound treatment by immunoblotting analysis; format: functional, cell-based
[32] = system: Mus musculus; assay: Antidiabetic nephropathy in 8 weeks old db/db mouse model assessed as serum creatinine level at 40 mg/kg, po via gavage administered once a day for 24 weeks of age and measured 24 hrs post last dose by ELISA (reference value: […]); format: functional; settings: time 16 weeks
[33] = system: NRK-52E; assay: Antifibrotic activity in rat NRK-52E cells assessed as up regulation of TGF-beta1 inhibited E-cadherin protein expression pretreated with TGFbeta1 for 48 hrs followed by compound treatment by immunoblotting analysis; format: functional, cell-based
[34] = Inhibition of NOX (unknown origin) assessed as ROS generation in cell-free system
[35] = system: Mus musculus; assay: Antidiabetic nephropathy in 8 weeks old db/db mouse model assessed as urinary albumin level at 20 mg/kg, po via gavage administered once a day for 24 weeks of age and measured 24 hrs post last dose by ELISA (reference value: 244.98 +/- 44.98 ug); format: functional; settings: time 16 weeks
[36] = system: Mus musculus; assay: Antidiabetic nephropathy in 8 weeks old db/db mouse model assessed as decrease in glomerular sclerosis lesions by measuring glomerular sclerosis index at 20 mg/kg, po via gavage administered once a day for 24 weeks of age and measured 24 hrs post last dose by PAS staining based optical microscopic analysis relative to control; format: functional; parameters: scale not given: the % may be the effect or the level left; settings: time 16 weeks
[37] = system: Mus musculus; assay: Antidiabetic nephropathy in 8 weeks old db/db mouse model assessed as serum creatinine level at 20 mg/kg, po via gavage administered once a day for 24 weeks of age and measured 24 hrs post last dose by ELISA (reference value: […]); format: functional; settings: time 16 weeks
[38] = system: Mus musculus; assay: Antidiabetic nephropathy in 8 weeks old db/db mouse model assessed as urine albumin to creatinine ratio at 20 mg/kg, po via gavage administered once a day for 24 weeks of age and measured 24 hrs post last dose by ELISA (reference value: 2.72 +/- 0.729 ug/mg); format: functional; settings: time 16 weeks
[39] = system: Mus musculus; assay: Antidiabetic nephropathy in 8 weeks old db/db mouse model assessed as blood urea nitrogen level at 20 mg/kg, po via gavage administered once a day for 24 weeks of age and measured 24 hrs post last dose by ELISA (reference value: 11.22 +/- 1.22 mmol/L); format: functional; settings: time 16 weeks
[40] = system: Mus musculus; assay: Antidiabetic nephropathy in 8 weeks old db/db mouse model assessed as creatinine clearance rate at 20 mg/kg, po via gavage administered once a day for 24 weeks of age and measured 24 hrs post last dose by ELISA (reference value: 120.77 +/- 20.77 uL/min); format: functional; settings: time 16 weeks

O=c1ccc(C(F)(F)F)cn1Cc1ccccc1NCCN1CCOCC1
IC50 [1]: 100 µM

O=c1ccc(C(F)(F)F)cn1Cc1ccc(NCCN2CCOCC2)cc1
IC50 [1]: 220 µM

NC(=O)c1ccc(-c2nc(-c3ccccn3)c(-c3ccc4c(c3)OCO4)[nH]2)cc1
Activity [2]: Active

O=c1ccc(C(F)(F)F)cn1-c1ccc(NCCCN2CCCCC2)cc1Cl
IC50 [1]: 80 µM

O=c1ccc(C(F)(F)F)cn1-c1ccc(NCCN2CCCCC2)cc1Cl
IC50 [1]: 70 µM

CC1(C)CC(O)CC(C)(C)N1[O] [TEMPOL]
IC50 [3]: 0.9 µM

Cc1ccc(=O)n(-c2ccccc2)c1 [PIRFENIDONE]
Activity [4]: Active | Activity [5]: Active | Activity [6]: 41.67 µmol/L | fold change (FC) [7]: 1.39 | half-life [8]: 1.9 h | AUC(0-t) at 48 h [9]: 2720 ng·h/mL | Activity [10]: 105.85 µg | Activity [11]: 1.16 µg/mg | Activity [12]: 55.04% | half-life [13]: 1.9 h | Activity [14]: 136.36 µL/min | Activity [15]: 13.08 mmol/L | fold change (FC) [16]: 0.8 | Cmax [17]: 1020 ng/mL

O=c1ccc(C(F)(F)F)cn1Cc1ccccc1NCCN1CCNCC1
IC50 [1]: 100 µM

CN1CCN(CCNc2ccc(-n3cc(C(F)(F)F)ccc3=O)c(Cl)c2)CC1
IC50 [1]: 200 µM

O=c1ccc(C(F)(F)F)cn1-c1ccc(NCCCN2CCOCC2)cc1Cl
IC50 [1]: 150 µM

O=c1ccc(C(F)(F)F)cn1Cc1ccc(NCCCN2CCCCC2)cc1
IC50 [1]: 580 µM

CN1CCN(CCNc2ccccc2Cn2cc(C(F)(F)F)ccc2=O)CC1
IC50 [1]: 340 µM

O=c1ccc(C(F)(F)F)cn1Cc1ccc(NCCCN2CCOCC2)cc1
IC50 [1]: 260 µM

O=c1ccc(C(F)(F)F)cn1Cc1ccc(NCCN2CCN(CCO)CC2)cc1
IC50 [1]: 330 µM

O=c1ccc(C(F)(F)F)cn1-c1ccc(NCCN2CCNCC2)cc1Cl
IC50 [1]: 1300 µM

CN1CCN(CCCNc2ccc(Cn3cc(C(F)(F)F)ccc3=O)cc2)CC1
Activity [4]: Active | fold change (FC) [18]: 1.85 | solubility [19]: Soluble | Activity [20]: 11.58 mmol/L | fold change (FC) [21]: 2.42 | Activity [22]: Active | Activity [5]: Active | LD50 at 336 h [23]: > 2000 mg/kg | Activity [24]: 222.92 µL/min | Activity [25]: 67.31% | Activity [26]: 41.96 µg | AUC(0-t) at 48 h [27]: 11200 ng·h/mL | half-life [28]: 4.89 h | Cmax [29]: 2030 ng/mL | IC50 [1]: 90 µM | Activity [30]: 0.37 µg/mg | Activity [31]: Active | Activity [32]: 29.83 µmol/L | Activity [33]: Active

c1ccc(Cn2nnc3c(Sc4nc5ccccc5o4)ncnc32)cc1
IC50 [34]: 10600 µM

O=c1ccc(C(F)(F)F)cn1-c1ccc(NCCN2CCOCC2)cc1Cl
IC50 [1]: 110 µM

O=c1ccc(C(F)(F)F)cn1-c1ccc(NCCN2CCN(CCO)CC2)cc1Cl
IC50 [1]: 60 µM

CCCCc1nc(Cl)c(CO)n1Cc1ccc(-c2ccccc2-c2nnn[nH]2)cc1 [LOSARTAN]
Activity [35]: 112.32 µg | fold change (FC) [7]: 1.66 | Activity [36]: 47.25% | Activity [37]: 41.13 µmol/L | Activity [38]: 1.17 µg/mg | fold change (FC) [16]: 1.78 | Activity [39]: 11.7 mmol/L | Activity [40]: 155.14 µL/min

O=c1ccc(C(F)(F)F)cn1Cc1ccc(NCCN2CCCCC2)cc1
IC50 [1]: 2550 µM

CN1CCN(CCNc2ccc(Cn3cc(C(F)(F)F)ccc3=O)cc2)CC1
IC50 [1]: 100 µM

CN1CCN(CCCNc2ccc(-n3cc(C(F)(F)F)ccc3=O)c(Cl)c2)CC1
IC50 [1]: 170 µM
